# Results from patent publication US20260234157A1, “COMPOUND AND METHOD FOR TARGETED DEGRADATION OF ANDROGEN RECEPTOR” (Gan & Lee Pharmaceuticals Co., Ltd., priority 2023, published 2026).
# Residue numbers refer to the chain shown, from its start.
# What was measured:
# Format in all cases: cell-based
# [1] = system: VCaP cells; experiment: Inhibition of proliferation of VCaP cells (WST-8); conditions: Homo sapiens; VCaP cells, 168 hours, WST-8 absorbance at 450 nm; read-out: IC50 for inhibiting the proliferation of VCaP cells
# Method in brief: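 Proliferation was read by WST-8 on day nine. Cells were VCaP FGC, seeded at 15000 cells per well in 10% FBS DMEM and kept at 37° C with 5% CO2.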
# [2] = target: T1, AR protein (Homo sapiens, UniProt P10275); experiment: Degradation of AR protein in VCaP cells (Western blot); conditions: 8 hours; for inhibition at 0.01 µM: compound at 10 nM, read-out: Degradation rate of the AR protein in VCaP cells, 10 nM (%); for inhibition at 0.1 µM: compound at 100 nM, read-out: Degradation rate of the AR protein in VCaP cells, 100 nM (%)
# T1 construct: degradation activity of the compounds disclosed in the present disclosure on AR protein in VCaP cells; host or cells: VCaP
# T1 sequence (P10275 1-920): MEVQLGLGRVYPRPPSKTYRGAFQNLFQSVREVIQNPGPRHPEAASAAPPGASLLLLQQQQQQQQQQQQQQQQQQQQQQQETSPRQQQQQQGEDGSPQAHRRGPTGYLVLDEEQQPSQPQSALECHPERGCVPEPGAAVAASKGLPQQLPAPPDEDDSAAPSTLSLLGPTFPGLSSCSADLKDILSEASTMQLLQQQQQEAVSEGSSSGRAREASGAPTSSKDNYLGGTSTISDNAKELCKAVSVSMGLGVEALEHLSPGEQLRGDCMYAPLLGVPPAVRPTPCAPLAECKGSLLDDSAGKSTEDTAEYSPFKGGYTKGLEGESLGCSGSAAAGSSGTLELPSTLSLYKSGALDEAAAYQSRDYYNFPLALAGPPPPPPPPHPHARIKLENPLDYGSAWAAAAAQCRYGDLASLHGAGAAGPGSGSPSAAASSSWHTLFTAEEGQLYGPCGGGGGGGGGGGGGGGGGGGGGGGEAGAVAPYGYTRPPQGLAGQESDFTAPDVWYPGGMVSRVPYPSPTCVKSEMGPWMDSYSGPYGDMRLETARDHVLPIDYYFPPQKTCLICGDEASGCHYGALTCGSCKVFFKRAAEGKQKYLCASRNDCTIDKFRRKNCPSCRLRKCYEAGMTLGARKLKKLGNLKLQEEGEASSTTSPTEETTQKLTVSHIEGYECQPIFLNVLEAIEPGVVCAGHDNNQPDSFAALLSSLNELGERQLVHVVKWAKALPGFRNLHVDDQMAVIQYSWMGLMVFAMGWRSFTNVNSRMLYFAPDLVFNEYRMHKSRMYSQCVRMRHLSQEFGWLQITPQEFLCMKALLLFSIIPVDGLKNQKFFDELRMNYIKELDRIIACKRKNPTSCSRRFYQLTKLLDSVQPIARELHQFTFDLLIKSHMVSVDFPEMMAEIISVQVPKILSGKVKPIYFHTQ
# Method in brief: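 Western blot readout: AR band grayscale normalised to GAPDH, used to derive degradation rate. Lysates came from VCaP cells exposed to compound for 8 h, with solvent controls run in parallel.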
# [3] = target: T2, AR protein (Homo sapiens, UniProt P10275, T878A); experiment: Degradation of AR protein in LNCaP cells (Western blot); conditions: LNCaP cells, 8 hours, Western blot grayscale, GAPDH internal reference; for inhibition at 0.01 µM: compound 10 nM, read-out: Degradation rates of the AR protein in LNCaP cells, 10 nM (%); for inhibition at 0.1 µM: compound 100 nM, read-out: Degradation rates of the AR protein in LNCaP cells, 100 nM (%)
# T2 construct: degradation activity of the compounds disclosed in the present disclosure on AR protein in LNCaP cells; host or cells: LNCaP FGC
# T2 sequence (P10275 1-920 T878A): T1 sequence (P10275 1-920) with T878A
# Method in brief: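 Percent AR degradation was derived from GAPDH-normalised Western blot band intensities (infrared detection) in LNCaP lysates.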
# [4] = system: LNCaP FGC cells; experiment: Inhibition of proliferation of LNCaP cells (WST-8); conditions: Homo sapiens, LNCaP, 96 h, LNCaP FGC cells, 96 hours, WST-8 absorbance at 450 nm; read-out: IC50 for inhibiting the proliferation of LNCaP cells
# Procedure: The cells were cultured in a cell culture incubator with 5% CO2 at 37° C. overnight. […] On the sixth day, 96 well plates were taken out, and 20 μL of WST-8 (Beytime, C0040) reagent was added to each well.
Compound,IC50 [1] [nM],inhibition at 0.01 µM [2] [%],inhibition at 0.1 µM [2] [%],inhibition at 0.01 µM [3] [%],inhibition at 0.1 µM [3] [%],IC50 [4] [nM]
N#Cc1ccc(O[C@H]2CC[C@H](NC(=O)c3ccc(N4CCC(CN5CC6(CCc7cc8c(cc7O6)C(=O)N(C6CCC(=O)NC6=O)C8)C5)CC4)nn3)CC2)cc1Cl (stereo partly drawn) [Compound 8],1,24,76,78,67,2090
N#Cc1ccc(O[C@H]2CC[C@H](NC(=O)c3ccc(N4CCN(CC(=O)N5CCC6(CC5)COc5c6ccc6c5CN(C5CCC(=O)NC5=O)C6=O)CC4)nn3)CC2)cc1Cl (stereo partly drawn) [Compound 241],8.5,29,77,50,63,68600
COc1cc(O[C@H]2C(C)(C)[C@H](NC(=O)c3ccc(N4CCC(C#N)(CN5CCC6(CC5)COc5c6ccc6c5C(=O)N(C5CCC(=O)NC5=O)C6=O)CC4)cc3)C2(C)C)ccc1C#N (stereo partly drawn) [Compound 207],38,-46,37,28,40,870
N#Cc1ccc(O[C@H]2CC[C@H](NC(=O)c3ccc(N4CC(CN5CCC6(CC5)COc5cc7c(cc5C6)C(=O)N(C5CCC(=O)NC5=O)C7=O)C4)nn3)CC2)cc1Cl (stereo partly drawn) [Compound 59],110,86,87,43,66,400
N#Cc1ccc(O[C@H]2CC[C@H](NC(=O)c3ccc(N4CCC(CN5CCC6(CC5)Oc5cc7c(cc5CC6(F)F)C(=O)N(C5CCC(=O)NC5=O)C7=O)CC4)nn3)CC2)cc1Cl (stereo partly drawn) [Compound 18],110,59,69,7,57,4940
N#Cc1ccc(O[C@H]2CC[C@H](NC(=O)c3ccc(N4CCC(CN5CCC6(CC5)COc5c6ccc6c5CN(C5CCC(=O)NC5=O)C6=O)(C5CC5)CC4)nn3)CC2)cc1Cl (stereo partly drawn) [Compound 238],1.6,54,79,31,61,21
COc1cc(O[C@H]2C(C)(C)[C@H](NC(=O)c3ccc(N4CCC(C)(CN5CCC6(CC5)COc5cc7c(cc56)C(=O)N(C5CCC(=O)NC5=O)C7=O)CC4)cc3)C2(C)C)ccc1C#N (stereo partly drawn) [Compound 288],74,7,41,-18,18,65900
COc1cc(O[C@H]2C(C)(C)[C@H](NC(=O)c3ccc(N4CCC(CN5CC6(CCc7ccc8c(c7O6)C(=O)N(C6CCC(=O)NC6=O)C8=O)C5)CC4)cc3)C2(C)C)ccc1C#N (stereo partly drawn) [Compound 278],9200,-30,-16,-3,34,60000
COc1cc(O[C@H]2C(C)(C)[C@H](NC(=O)c3ccc(N4CCC(C#N)(CN5CCC6(CC5)COc5c6ccc6c5CN(C5CCC(=O)NC5=O)C6=O)CC4)cc3)C2(C)C)ccc1C#N (stereo partly drawn) [Compound 208],3.5,17,67,34,38,10
N#Cc1ccc(O[C@H]2CC[C@H](NC(=O)c3ccc(N4CCC(N5CCC6(CCc7cc8c(cc7O6)C(=O)N(C6CCC(=O)NC6=O)C8=O)CC5)C(F)(F)C4)nn3)CC2)cc1Cl (stereo partly drawn) [Compound 27],380,33,44,14,39,110
COc1cc(O[C@H]2C(C)(C)[C@H](NC(=O)c3ccc(N4CCC(F)(CN5CCC6(CCc7cc8c(cc7O6)C(=O)N(C6CCC(=O)NC6=O)C8=O)CC5)CC4)cc3)C2(C)C)ccc1C#N (stereo partly drawn) [Compound 270],110,9,28,47,40,72000
N#Cc1ccc(O[C@H]2CC[C@H](NC(=O)c3ccc(N4CCC5(CCC(N6CCC7(CC6)COc6cc8c(cc67)C(=O)N(C6CCC(=O)NC6=O)C8=O)CC5)CC4)nn3)CC2)cc1Cl (stereo partly drawn) [Compound 51],18,83,90,13,49,400
COc1cc(O[C@H]2C(C)(C)[C@H](NC(=O)c3ccc(N4CCC(F)(CN5CCC6(CC5)COc5cc7c(cc5O6)CN(C5CCC(=O)NC5=O)C7=O)CC4)cc3)C2(C)C)ccc1C#N (stereo partly drawn) [Compound 284],19,9,73,18,51,5840
COc1cc(O[C@H]2C(C)(C)[C@H](NC(=O)c3ccc(N4CCC(C)(CN5CC6(CCc7ccc8c(c7O6)C(=O)N(C6CCC(=O)NC6=O)C8=O)C5)CC4)cc3)C2(C)C)ccc1C#N (stereo partly drawn) [Compound 290],9420,-2,6,-14,18,60900
N#Cc1ccc(O[C@H]2CC[C@H](NC(=O)c3ccc(N4CC5(CC(N6CCC7(CCc8cc9c(cc8O7)C(=O)N(C7CCC(=O)NC7=O)C9=O)CC6)C5)C4)nn3)CC2)cc1Cl (stereo partly drawn) [Compound 32],520,58,64,22,53,3600
